Measurements as given in patent US11623931B2, “Bicyclic compounds for diagnosis and therapy” (AC IMMUNE SA, priority 2016, dated 2023).

Experiments:
[1] = target: T1, aSyn aggregates on PD sections (Homo sapiens, UniProt P37840); test: Assay 1 (fluorescence based assay): direct staining of human Parkinson's disease brain sections; assay type: binding; set-up: key: − (No); +/− (very weak); + (weak); ++ (good); +++ (strong); conditions: staining intensity; compound 100 μM, frozen amygdala sections, PD Braak stage V-VI
T1 construct: 20 μm frozen sections from amygdala were purchased from an external provider (Tissue Solutions Ltd.); tissue Tissue Solutions Ltd; host or cells: human PD amygdala, frozen sections, Braak stage V-VI
Text: Assay 1 (Fluorescence Based Assay):
(§1) Direct Staining of Compounds of this Invention to Human Parkinson's Disease Brain Sections
(§2) 20 μm frozen sections from amygdala were purchased from an external provider (Tissue Solutions Ltd.). Donors were diagnosed with PD, Braak stage V-VI (Braak et al., Neurobiol. Aging, 2003, 24, 197-211) and thus with confirmed aSyn pathology. PD donors, Braak stage V-VI with mixed pathology, containing aSyn aggregates as well as Aβ plaques, were also used in this assay. Sections were kept at −80° C. until start of the experiment.
(§3) Brain sections were encircled with pap pen liquid blocker to reduce the volume of solution for the different incubations. Sections were fixed for 15 min at 4° C. with 4% paraformaldehyde and washed three times for 5 minutes with PBS (phosphate buffered saline) at room temperature. Test compounds were incubated on the sections at 100 μM in 50% ethanol in water for 30 min at room temperature, followed by three washes of 5 minutes with PBS. Sections were then saturated and permeabilized in blocking buffer (PBS, 10% NGS, 0.25% Triton) for 1 hour at room temperature and then incubated for 2 hours at room temperature with the primary antibodies against aSyn: aSyn-211 (SantaCruz Biotechnology sc-12767) or aSyn-pS129 (Abcam AB51253), and primary antibody against AR, 4G8, (Covance, SIG-39220). All primary antibodies diluted 1/250 in PBS, 5% NGS, 0.25% Triton. After three washes in PBS, the sections were incubated for 30 minutes at room temperature with a secondary anti-mouse antibody labeled with AlexaFluor555 (Invitrogen A21422) or anti-rabbit antibody labeled with AlexaFluor555 (Invitrogen A21428) and further washed three times in PBS. To reduce auto-fluorescence of the tissue, the sections were incubated in a solution of 0.1% Sudan Black (Sigma 199664) in 70% ethanol for 15 min at room temperature, followed by four washes with PBS and mounted under cover slips using ProLong Gold Antifade reagent (Invitrogen P36930).
(§4) Sections were analyzed on the Nikon Eclipse Ti microscope to detect staining and imaged using Nikon DS-Fi2 camera and NIS-Element AR4.13.1 software.

[2] = test system: Aβ plaques on PD sections with mixed pathology; test: Assay 1 (fluorescence based assay): direct staining of PD brain sections with mixed pathology; assay type: binding, human; set-up: key: − (No); +/− (very weak); + (weak); ++ (good); +++ (strong); conditions: staining intensity; compound 100 μM, frozen amygdala sections, PD Braak stage V-VI with aSyn aggregates and Aβ plaques
Protocol: as §1, §2, §3, §4

SMILES	Staining of aSyn aggregates on PD sections [1]	Staining of Aβ plaques on PD sections with mixed pathology [2]
CNc1ccc(-c2cc3ccc(-c4ccc(N5CC[C@H](F)C5)nc4)nc3s2)cc1F [Example 113]	+	++
Cn1cc(-c2ccc3sc(-c4ccc(N5CCCC5)nc4F)nc3n2)cn1 [Example 86]	++	−
O=C1NCCc2nc(-c3ccc(N4CC[C@H](F)C4)nc3)sc21 [Example 118]	+	+
Fc1nc(N2CCCC2)ccc1-c1nc2nc(-c3cccnc3)ccc2s1 [Example 87]	++	−
Fc1nc(N2CCCC2)ccc1-c1nc2nc(-c3cc[nH]c3)ccc2s1 [Example 96]	++	+/−
CNc1ccc(-c2cc3ccc(-c4ccc(F)nc4)nc3s2)cc1F [Example 106]	+++	+++
F[C@H]1CCCN(c2ccc(-c3nc4nc(-n5ccnc5)ccc4s3)cn2)C1 [Example 132]	++	+/−
O=C1NCCc2nc(N3CC[C@H](F)C3)sc21 [Example 119]	+	−
F[C@@H]1CCCN(c2ccc(-c3nc4ncc(-c5cccnc5)cc4s3)cn2)C1 [Example 100]	++	++
F[C@@H]1CCN(c2ccc(-c3nc4nc(-c5cccnc5)ccc4s3)cn2)C1 [Example 90]	++	−
F[C@H]1CCCN(c2ccc(-c3nc4nc(-c5cncs5)ccc4s3)cn2)C1 [Example 98]	+	+/−
O=C1CN(CCF)CCN1c1ccc2nc(-c3ccc(N4CCCC4)nc3)sc2c1 [Example 128]	++	++
Cn1cncc1-c1ccc2sc(-c3ccc(N4CCCC4)nc3F)nc2n1 [Example 94]	+++	−
F[C@H]1CCN(c2ccc(-c3ccc4cc(-c5cccnc5)sc4n3)cn2)C1 [Example 112]	+	++
F[C@@H]1CCCN(c2ccc(-c3nc4nc(-c5cncs5)ccc4s3)cn2)C1 [Example 99]	++	+/−
Fc1ncccc1-c1ccc2sc(-c3ccc(N4CCCC4)nc3)nc2n1 [Example 108]	++	+/−
O=C1c2sc(-c3ccc(N4CC[C@@H](F)C4)nc3)nc2CCN1c1cccnc1 [Example 129]	++	+++
Fc1ccc(-c2ccc3sc(-c4ccc(N5CCCC5)nc4)nc3n2)cn1 [Example 109]	++	+/−
